According to US12139558B2, “Method of manufacturing a pharmaceutical composition” (Ferring B.V., priority 2017, dated 2024):
Starred links: 1 amine or outer side, 2 acyl side, 3 side chain; linkers in the order of their positions; H or OH if unused. Positions of bridges follow the written chain, without caps; N, C: chain ends. Residues, ends and D or L forms follow the SMILES beside them. X1 = O=C(CCC[*:2])[*:1]

What was measured:
[1] = type: physicochemical
Protocol: The next day the solids were analysed by HPLC for purity and assay (FIG. 3b), TG/DTA for ease of mass loss/thermal events (FIG. 4b) as well as polarised light microscopy (PLM) and XRPD for morphology and crystalline content. […] These mass losses correspond to weakly surface bound acetonitrile and water, and are not indicative of any solvation of the crystal form itself.

[2] = system: Prader-Willi Syndrome patients; details: after 15 days, vs placebo treated patients; cited from earlier work
[3] = Gravimetric vapour sorption (GVS) of crystals; type: physicochemical; details: 25° C.
Protocol: Gravimetric vapour sorption (GVS) was performed on an SMS DVS-1. 1.4 mg of crystals and powder were added into an Al pan and exposed to stepwise relative humidity (RH) changes during two consecutive cycles: 20-30-40-50-60-70-80-70-60-50-40-30-20-10-0-10-20-30-40-50-60-70-80-90-80-70-60-50-40-30-20-10-0% RH in an open loop mode. The temperature was maintained at 25° C. and pure nitrogen flow rate of 200 ml/min was used. The dm/dt criteria applied was 0.001 weight-%/min during a 5 minute window, with a maximum time of 150 minutes for all steps, with the exception of steps at 0% RH that were set to 6 hours.

Which “total mass loss (TG/DTA)” value ([1]; up to 110° C., crystals of Example 4, FIG. 4b) does the source give for CC[C@H](C)[C@@H]1NC(=O)[C@H](Cc2ccc(OC)cc2)NC(=O)CCCSC[C@@H](C(=O)N2CCC[C@H]2C(=O)N[C@@H](CC(C)C)C(=O)NCC(N)=O)NC(=O)[C@H](CC(N)=O)NC(=O)[C@H](CCC(N)=O)NC1=O [Form II, carbetocin] (Y(Me)IQNCPLG-NH2; linker N-5 via X1) here?
Its value is “approximately 0.8%”.

And the “first mass loss (TG/DTA)” value ([1]; up to approximately 60° C., weakly surface bound acetonitrile and water)?
Its value is “approximately 0.5%”.

What about the “second mass loss (TG/DTA)” value ([1]; up to approximately 110° C., weakly surface bound acetonitrile and water) of the same compound?
Its value is “approximately 0.3%”.

With CC[C@H](C)[C@@H]1NC(=O)[C@H](Cc2ccc(OC)cc2)NC(=O)CCCSC[C@@H](C(=O)N2CCC[C@H]2C(=O)N[C@@H](CC(C)C)C(=O)NCC(N)=O)NC(=O)[C@H](CC(N)=O)NC(=O)[C@H](CCC(N)=O)NC1=O [carbetocin, 1-butanoic acid-2-(O-methyl-L-tyrosine)-1-carbaoxytocin] (Y(Me)IQNCPLG-NH2; linker N-5 via X1) as the compound, how does the “improvement over placebo in measurements of hyperphagia, obsessive compulsive disorder, food seeking behaviour and clinical global impression” value [2] read?
The value was “statistically significant improvement over placebo treated patients”.

With CC[C@H](C)[C@@H]1NC(=O)[C@H](Cc2ccc(OC)cc2)NC(=O)CCCSC[C@@H](C(=O)N2CCC[C@H]2C(=O)N[C@@H](CC(C)C)C(=O)NCC(N)=O)NC(=O)[C@H](CC(N)=O)NC(=O)[C@H](CCC(N)=O)NC1=O [Form III, carbetocin] (Y(Me)IQNCPLG-NH2; linker N-5 via X1) as the compound, how does the “GVS isotherm plateau (monohydrate plus some loosely bound surface water)” value ([3]; crystals of Example 5, FIG. 8b) read?
Its value is “around 2 % (w/w)”.

And the “GVS second plateau, additional (pentahydrate with some loosely bound surface water)” value ([3]; crystals of Example 5, FIG. 8b)?
The value was “approximately 8 % (w/w)”.

What about the “relative humidity at which the pentahydrate exists” value ([3]; sorption) of the same compound?
The value was no less than 60 % RH.
